From ChEMBL document CHEMBL3580544, “Interaction of α-Hexylcinnamaldehyde with a Biomembrane Model: A Possible MDR Reversal Mechanism” (J Nat Prod, 2015) come the findings set out here.

Data set [1] in a line: Antioxidant activity assessed as inhibition of AAPH-induced crocin oxidation in hydrophilic medium at 5 to 500 uM by crocin bleaching assay. It is filed as physicochemical.
The nature of data set [2]: Antioxidant activity assessed as inhibition of AAPH-induced crocin oxidation at 5 to 500 uM in lipophilic medium containing linoleic acid by crocin bleaching assay. The format is physicochemical.
Data set [3] is described as follows: Induction of thermotropic behavior changes in dimyristoylphosphatidylcholine multilamellar vesicles assessed as changes in pre-transition peak at 0.015 to 0.15 molar fraction by differential scanning calorimetry.
Data set [4] in a line: Induction of thermotropic behavior changes in dimyristoylphosphatidylcholine multilamellar vesicles assessed as changes in main transition peak at 0.015 to 0.15 molar fraction by differential scanning calorimetry. In general terms: DSC measures the heat that a sample takes up or gives off during a temperature scan.
The nature of data set [5]: Induction of thermotropic behavior changes in dimyristoylphosphatidylcholine multilamellar vesicles assessed as reduction in transition temperature at 0.015 to 0.15 molar fraction by differential scanning calorimetry.
The nature of data set [6]: Induction of thermotropic behavior changes in dimyristoylphosphatidylcholine multilamellar vesicles assessed as reduction in enthalpy of phase transition at 0.015 to 0.15 molar fraction by differential scanning calorimetry.
Data set [7] in a line: Induction of thermotropic behavior changes in dimyristoylphosphatidylcholine multilamellar vesicles assessed as reduction in cooperativity among phospholipid molecules by measuring peak width at half height at 0.015 to 0.15 molar fraction by differential scanning calorimetry.
A short description of data set [8]: Induction of thermotropic behavior changes in dimyristoylphosphatidylcholine multilamellar vesicles assessed as reduction in enthalpy of phase transition at 0.015 molar fraction by differential scanning calorimetry. Details: scale not given: the % may be the effect or the level left.
The nature of data set [9]: Induction of thermotropic behavior changes in dimyristoylphosphatidylcholine multilamellar vesicles assessed as reduction in enthalpy of phase transition at 0.03 molar fraction by differential scanning calorimetry. More on the design: scale not given: the % may be the effect or the level left.
A short description of data set [10]: Induction of thermotropic behavior changes in dimyristoylphosphatidylcholine multilamellar vesicles assessed as reduction in enthalpy of phase transition at 0.045 molar fraction by differential scanning calorimetry. More on the design: scale not given: the % may be the effect or the level left.
The nature of data set [11]: Induction of thermotropic behavior changes in dimyristoylphosphatidylcholine multilamellar vesicles assessed as reduction in enthalpy of phase transition at 0.06 molar fraction by differential scanning calorimetry. More on the design: scale not given: the % may be the effect or the level left.
A short description of data set [12]: Induction of thermotropic behavior changes in dimyristoylphosphatidylcholine multilamellar vesicles assessed as reduction in enthalpy of phase transition at 0.09 molar fraction by differential scanning calorimetry. More on the design: scale not given: the % may be the effect or the level left.
Data set [13] relates to Lipid bilayer. Nature of the data set: Induction of thermotropic behavior changes in dimyristoylphosphatidylcholine multilamellar vesicles assessed as reduction in enthalpy of phase transition at 0.12 molar fraction by differential scanning calorimetry. More on the design: scale not given: the % may be the effect or the level left.
Data set [14] in a line: Induction of thermotropic behavior changes in dimyristoylphosphatidylcholine multilamellar vesicles assessed as reduction in enthalpy of phase transition at 0.15 molar fraction by differential scanning calorimetry. More on the design: scale not given: the % may be the effect or the level left.
For data set [15], the system named is Lipid bilayer. Nature of the data set: Binding affinity to external surface of dimyristoylphosphatidylcholine multilamellar vesicles at 0.09 molar fraction by differential scanning calorimetry.
Data set [16] can be described thus: Drug absorption in dimyristoylphosphatidylcholine multilamellar vesicles at 0.09 molar fraction by differential scanning calorimetry. The format is physicochemical.
Data set [17] can be described thus: Drug absorption in dimyristoylphosphatidylcholine multilamellar vesicles at 0.045 molar fraction using lipophilic medium as carrier by differential scanning calorimetry. The format is physicochemical. Particulars: octanol/water.
Data set [18] in a line: Pro-oxidant activity in lipophilic medium containing linoleic acid by crocin bleaching assay. It is filed as functional.
The nature of data set [19]: Pro-oxidant activity in hydrophilic medium by crocin bleaching assay. It is filed as functional.

SMILES strings stand for the structures. Activity calls are given as the source filed them. The rule behind the calls is not given here.

Take `Cc1c(C)c2c(c(C)c1O)CCC(C)(C(=O)O)O2` (stereo unspecified) [TROLOX]: the outcome in data set [1] and in data set [2] was Active.

In the case of `CCCCCC/C(C=O)=C\c1ccccc1`, the outcome in data set [3], in [4] and in data set [15] was Active. Besides, the Activity entry is “Dose-dependent effect” in data set [5]; “Dose-dependent effect” in data set [6]; “Dose-dependent effect” in [7]; 95% in data set [8]; 96% in data set [9]; 98.3% in data set [10]. For the same compound, the Activity in [11] was 91.7%; in [12], 79.5%; in data set [13] it was 71.2%; in data set [14], 74.1%; in data set [1] it was “Active”; in [2], “Active”. In addition, the Drug uptake entry in data set [16] and in data set [17] was “Active” throughout. The outcome in [18] and in [19] was inactive.
